{"source": "paper PMC10178848", "about": "“Modulating fast skeletal muscle contraction protects skeletal muscle in animal models of Duchenne muscular dystrophy” (The Journal of Clinical Investigation, 2023)", "tested_on": "mdx mouse EDL muscle", "assay": "Phosphoprotein array analysis (Cell Signaling Phospho Antibody Array)", "settings": "phospho/total, T vs C", "experimental": "mdx mouse EDL muscle was prepared for ex vivo analysis as described (n = 5). Muscles were incubated for 1 hour with DMSO or EDG-5506 (5 μM) and then flash frozen in liquid nitrogen. Tissue preparation and analysis were performed as recommended by the manufacturer (Cell Signaling Phospho Antibody Array, Full Moon Biosystems)."}
{"smiles": "O=c1ccc(-c2cnc(OCC(F)(F)F)nc2)nn1Cc1cncc(F)c1", "note": "[EDG-5506]", "values": [{"measurement": "Ratio (T/C): Integrin beta-3 (Phospho-Tyr773) to total Integrin beta-3 (Ab-773)", "value": 0.8566}, {"measurement": "Ratio (T/C): Interferon-gamma receptor alpha (Phospho-Tyr457) to total Interferon-alpha/beta receptor alpha chain (Ab-466)", "value": 0.992}, {"measurement": "Ratio (T/C): JAK2 (Phospho-Tyr221) to total JAK2 (Ab-1007)", "value": 0.5849}, {"measurement": "Ratio (T/C): JunB (Phospho-Ser259) to total JunB (Ab-259)", "value": 0.7783}, {"measurement": "Ratio (T/C): LKB1 (Phospho-Thr189) to total LKB1 (Ab-334)", "value": 1.099}, {"measurement": "Ratio (T/C): LYN (Phospho-Tyr507) to total LYN (Ab-507)", "value": 1.819}, {"measurement": "Ratio (T/C): Lamin A/C (Phospho-Ser392) to total Lamin A/C (Ab-392)", "value": 0.4365}, {"measurement": "Ratio (T/C): MDM2 (Phospho-Ser166) to total MDM2 (Ab-166)", "value": 0.7195}, {"measurement": "Ratio (T/C): MEK1 (Phospho-Ser217) to total MEK1 (Ab-291)", "value": 0.8093}, {"measurement": "Ratio (T/C): MEK1 (Phospho-Ser221) to total MEK1 (Ab-291)", "value": 1.481}, {"measurement": "Ratio (T/C): MITF (Phospho-Ser73) to total MITF (Ab-73)", "value": 0.8065}, {"measurement": "Ratio (T/C): MSK1 (Phospho-Ser376) to total MSK1 (Ab-360)", "value": 1.21}, {"measurement": "Ratio (T/C): Myc (Phospho-Ser62) to total Myc (Ab-58)", "value": 0.9423}, {"measurement": "Ratio (T/C): NFkB-p65 (Phospho-Ser311) to total NFkB-p65 (Ab-529)", "value": 0.8783}, {"measurement": "Ratio (T/C): NFkB-p65 (Phospho-Ser529) to total NFkB-p65 (Ab-529)", "value": 0.8263}, {"measurement": "Ratio (T/C): NFkB-p100/p52 (Phospho-Ser865) to total NFkB-p100/p52 (Ab-865)", "value": 1.159}, {"measurement": "Ratio (T/C): NFkB-p105/p50 (Phospho-Ser337) to total NFkB-p105/p50 (Ab-927)", "value": 1.219}, {"measurement": "Ratio (T/C): P38 MAPK (Phospho-Thr180/Tyr182) to total P38 MAPK (Ab-182)", "value": 0.2071}, {"measurement": "Ratio (T/C): P70S6K (Phospho-Ser424) to total P70S6K (Ab-229)", "value": 0.7495}, {"measurement": "Ratio (T/C): P70S6K (Phospho-Thr421) to total P70S6K (Ab-229)", "value": 1.055}, {"measurement": "Ratio (T/C): P73 (Phospho-Tyr99) to total P73 (Ab-99)", "value": 1.0107}, {"measurement": "Ratio (T/C): P90RSK (Phospho-Thr359/Ser363) to total P90RSK (Ab-359/363)", "value": 0.8912}, {"measurement": "Ratio (T/C): PDK1 (Phospho-Ser241) to total PDK1 (Ab-241)", "value": 0.9138}, {"measurement": "Ratio (T/C): PLCG1 (Phospho-Tyr783) to total PLCG1 (Ab-783)", "value": 1.902}, {"measurement": "Ratio (T/C): PLK1 (Phospho-Thr210) to total PLK1 (Ab-210)", "value": 0.3997}, {"measurement": "Ratio (T/C): PP1 alpha (Phospho-Thr320) to total PP1 alpha (Ab-320)", "value": 0.867}, {"measurement": "Ratio (T/C): PP2A-alpha (Phospho-Tyr307) to total PP2A-alpha (Ab-307)", "value": 0.7589}, {"measurement": "Ratio (T/C): PPAR-gamma (Phospho-Ser112) to total PPAR-gamma (Ab-112)", "value": 0.8451}, {"measurement": "Ratio (T/C): PTEN (Phospho-Ser380/Thr382/Thr383) to total PTEN (Ab-380)", "value": 0.6925}, {"measurement": "Ratio (T/C): RSK1/2/3/4 (Phospho-Ser221/227/218/232) to total RSK1/2/3/4 (Ab-221/227/218/232)", "value": 1.05}, {"measurement": "Ratio (T/C): Raf1 (Phospho-Ser259) to total Raf1 (Ab-43)", "value": 0.9472}, {"measurement": "Ratio (T/C): Rb (Phospho-Ser608) to total Rb (Ab-807)", "value": 0.5194}, {"measurement": "Ratio (T/C): Rb (Phospho-Ser807) to total Rb (Ab-807)", "value": 0.4329}, {"measurement": "Ratio (T/C): RelB (Phospho-Ser552) to total RelB (Ab-552)", "value": 0.7768}, {"measurement": "Ratio (T/C): SHP-2 (Phospho-Tyr542) to total SHP-2 (Ab-542)", "value": 0.9242}, {"measurement": "Ratio (T/C): SRF (Phospho-Ser99) to total SRF (Ab-99)", "value": 0.6381}, {"measurement": "Ratio (T/C): STAT2 (Phospho-Tyr690) to total STAT2 (Ab-690)", "value": 1.1086}, {"measurement": "Ratio (T/C): STAT3 (Phospho-Tyr705) to total STAT3 (Ab-705)", "value": 0.8721}, {"measurement": "Ratio (T/C): STAT5B (Phospho-Ser731) to total STAT5B (Ab-731)", "value": 1.008}, {"measurement": "Ratio (T/C): STAT6 (Phospho-Thr645) to total STAT6 (Ab-645)", "value": 0.7953}, {"measurement": "Ratio (T/C): SYK (Phospho-Tyr348) to total SYK (Ab-525)", "value": 0.9191}, {"measurement": "Ratio (T/C): Shc (Phospho-Tyr349) to total Shc (Ab-349)", "value": 1.943}, {"measurement": "Ratio (T/C): Smad1 (Phospho-Ser187) to total Smad1 (Ab-465)", "value": 1.9576}, {"measurement": "Ratio (T/C): Smad2 (Phospho-Ser467) to total Smad2 (Ab-255)", "value": 0.3873}, {"measurement": "Ratio (T/C): Smad2/3 (Phospho-Thr8) to total Smad2 (Ab-255)", "value": 0.779}, {"measurement": "Ratio (T/C): Smad3 (Phospho-Ser213) to total Smad3 (Ab-425)", "value": 2.4313}, {"measurement": "Ratio (T/C): Src (Phospho-Tyr418) to total Src (Ab-418)", "value": 0.4536}, {"measurement": "Ratio (T/C): Synuclein alpha (Phospho-Tyr136) to total Synuclein alpha (Ab-125)", "value": 1.009}, {"measurement": "Ratio (T/C): Tau (Phospho-Ser235) to total Tau (Ab-235)", "value": 0.4913}, {"measurement": "Ratio (T/C): Tau (Phospho-Ser396) to total Tau (Ab-235)", "value": 0.4515}, {"measurement": "Ratio (T/C): Trk B (Phospho-Tyr515) to total Trk B (Ab-515)", "value": 0.8791}, {"measurement": "Ratio (T/C): VEGFR2 (Phospho-Tyr1175) to total VEGFR2 (Ab-1214)", "value": 0.7882}, {"measurement": "Ratio (T/C): VEGFR2 (Phospho-Tyr1214) to total VEGFR2 (Ab-1214)", "value": 1.1348}, {"measurement": "Ratio (T/C): Zap-70 (Phospho-Tyr319) to total Zap-70 (Ab-319)", "value": 0.9346}, {"measurement": "Ratio (T/C): c-Jun (Phospho-Ser73) to total c-Jun (Ab-243)", "value": 0.8772}, {"measurement": "Ratio (T/C): eEF2K (Phospho-Ser366) to total eEF2K (Ab-366)", "value": 0.5517}, {"measurement": "Ratio (T/C): eIF2A (Phospho-Ser51) to total eIF2A (Ab-51)", "value": 1.082}, {"measurement": "Ratio (T/C): eNOS (Phospho-Ser615) to total eNOS (Ab-1179)", "value": 1.215}, {"measurement": "Ratio (T/C): mTOR (Phospho-Ser2481) to total mTOR (Ab-2481)", "value": 1.125}, {"measurement": "Ratio (T/C): p44/42 MAP Kinase (Phospho-Tyr204) to total p44/42 MAP Kinase (Ab-202)", "value": 0.9379}, {"measurement": "Ratio (T/C): p53 (Phospho-Ser9) to total p53 (Ab-315)", "value": 0.8012}, {"measurement": "Ratio (T/C): p53 (Phospho-Ser15) to total p53 (Ab-315)", "value": 0.1195}, {"measurement": "Ratio (T/C): p53 (Phospho-Ser315) to total p53 (Ab-315)", "value": 0.641}]}
